Results reported in patent publication US20080193519A1, “Galenic Applications of Self-Emulsifying Mixtures of Lipidic Excipients” (Aventis Pharma S.A., priority 2004, published 2008).
In brackets after ≈: the same amount, converted by molar mass. Read-outs that look alike come from different tables or passages of the source. Each block holds one molecule with its values, some of them ahead of it.

Legend:
[1] = Protocol: 10 mg of molecule A are added per 1 ml of aqueous solution.
The suspensions are stirred at 25° C. for 24 hours and are then centrifuged. The amount of molecule A in the supernatant is determined by HPLC and the pH of the supernatant is checked.
The apparent solubility of molecule A in the various oils, surfactants, cosurfactants, DMSO and glycofurol was also determined. Small amounts of molecule A are added to 1 g of each vehicle. Dissolution is carried out by ultrasound treatment at 25° C. Dissolution is confirmed visually and by optical microscopy. The solubility is estimated to within about 1 mg.

[2] = from a suspension
[3] = Stability of molecule A in human duodenal liquid; format: in vitro ADME; details: FIG. 5
Protocol: For each stability test, the necessary volume of a sample of human duodenal liquid frozen immediately after withdrawal is defrosted. Centrifuging at 1000 g for 15 min removes the substances resembling mucus. The pH of the supernatant is adjusted to 6.40 by addition of MES buffer (1250 mM in PBS-CMF), a value similar to the mean value of the pH of the fresh duodenal liquid.
Molecule A is dissolved in DMSO and either diluted directly in HESS/HEPES buffer (control) or prepared in the formulations before dilution in HBSS/HEPES in order to obtain a microemulsion. The final concentration in both cases is 10^−4M.
The formulations, preheated to 37° C., are added to the duodenal liquid, maintained at 37° C., in a 1/1 (v/v) ratio and are immediately mixed, in order for the final concentration of molecule A to be 5×10^−5M.
At T=0 (immediately after mixing) and at T=5, 10, 15, 30, 60, 90 and 120 minutes, […] samples of each preparation are withdrawn and mixed with the same volume of acetone at 4° C. to halt the enzymatic reaction. The samples were subsequently centrifuged (1000 g for 5 min) and the supernatant is tested by a validated LC/MS/MS method.

[4] = in vitro; details: human, Caco-2, pH 7.4
Protocol: (§1) The Caco-2 strains used in the tests are Caco-2/TC7 clone cells.
(§2) In order to evaluate the scale of permeability of molecule A dissolved in DMSO as a function of the concentration, two solutions are prepared. The first, to which molecule A labelled with ^14C will be added, is 4.3×10^−2M; the second, to which ^14C-mannitol will be added, is 5×10^−2M.
(§3) These DMSO solutions are subsequently diluted in a 25 mM HBSS/HEPES buffer (pH 7.4) to which 0.4 μCi/ml of ^14C-mannitol or 0.4 μCi/ml of molecule A labelled with ^14C has been added (corresponding to 7 μM), so as to obtain final concentrations of molecule A of 7, 10, 50 or 100 mM.
(§4) The final concentration of DMSO in each donor solution is adjusted to 0.5%.
(§5) Donor solutions comprising 0.5% DMSO but comprising no compound are used as controls.
(§6) To analyse the role of P-glycoprotein in the mechanism of the transport of molecule A, donor solutions comprising 10 mM of molecule A and 100 mM of verapamil, nicardipine or progesterone are prepared and the permeability of molecule A is evaluated and compared with that obtained without the P-glycoprotein modulator.
(§7) To study the effects of glycofurol and of macrogol 300 on the permeability of molecule A: • Molecule A is dissolved in glycofurol in order to obtain 4.3×10^−3M or 5×10^−3M solutions. These are subsequently diluted in the HBSS/HEPES buffer to which 0.4 μCi/ml of ^14C-mannitol or 0.4 μCi/ml of molecule A labelled with ^14C has been added (see above), in order to obtain donor solutions for which the final concentration of molecule A is 50 μM and the final content of glycofurol is 1%. • Molecule A is dissolved in macrogol 300 in order to obtain 0.3×10^−3M or 10^−3M solutions.
(§8) Before any formulation, molecule A is dissolved in DMSO or glycofurol in order to obtain, in each solvent, solutions with concentrations of 4.3×10^−3M or 5×10^−3M. 40 μCi/ml of molecule A labelled with ^14C are added to the 4.3×10^−3M solutions, so that the theoretical concentration of molecule A is 5×10^−3M. 40 μCi/ml of ^14C-mannitol are added to the 5×10^−3M solutions.
(§9) Each of the solutions thus obtained is subsequently diluted in the mixtures under consideration of lipid excipients and of surfactants and, if appropriate, of cosurfactants, giving formulations comprising the solvent (DMSO or glycofurol) at 10% and molecule A at 5×10^−4M.
(§10) These formulations are diluted in 25 mM HBSS/HEPES buffer to give the donor solutions, the final concentration of molecule A of which is 5×10^−5M, which comprise 0.4 μCi/ml of molecule A labelled with 14C or else 0.4 μCi/ml of 14C-mannitol, and the proportion of lipid excipient of which is less than 1%. […]

[5] = system: Caco-2/TC7 clone cells
Protocol: as §1, §2, §3, §4, §5, §6, §7, §8, §9, §10

[6] = system: Caco-2/TC7 clone cells; assay: Transport (apparent permeability AB/BA) through Caco-2 cell monolayers; details: solvents used to prepare the formulations (FIG. 3)
Protocol: as §1, §2, §3, §4, §5, §6, §7, §8, §9, §10

Molecule: CCOC(=O)[C@H](CNC(=O)c1ccc(CCC(=O)NC2=NCCCN2)cc1)NS(=O)(=O)c1cccc2ccccc12 [molecule A, ethyl ester of (2S)-2-(naphthyl-1-sulphonylamino)-3-(4-(2-(1,4,5,6-tetrahydropyrimidin-2-ylcarbamoyl)ethyl)-benzoylamino)propionic acid]
- solubility ([1]; aqueous medium at physiological pH of the intestines): 400 µg/mL (≈ 0.69 mM)
- solubility ([1]; in glycofurol): 6000 µg/mL (≈ 10.4 mM)
- solubility ([1]; in macrogol 300): 2000 µg/mL (≈ 3.45 mM)
- absolute bioavailability [2]: less than 1%
- absorption of the active principle orally [2]: less than 1%
- stability in human duodenal liquid (in words) [3]: unstable

- Papp B→A at 120 min [4]: 2.1 ×10⁻⁶ cm/s
- efflux by P-glycoprotein (in words) ([5]; Caco-2): undergoes efflux by P-glycoprotein
- increase in the transport in the AB direction by a factor, with respect to 0.5% DMSO ([5]; human, Caco-2, 120 min, pH 7.4): 5.9
Molecule: O=C(CCCOc1ccc(C[C@H](NC(=O)OCc2ccccc2)C(=O)O)cc1)NC1=NCCCN1 [molecule B, (2S)-2-benzyloxycarbonylamino-3-(4-(3-(1,4,5,6-tetrahydropyrimidin-2-ylcarbamoyl)propyloxy)phenyl)-propionic acid]

- effect of the solvent on the Papp values of molecule A [6]: no effect
Molecule: glycofurol
